The values that follow come from article PMC11087803 (Proceedings of the National Academy of Sciences of the …, 2024).

Molecules are shown by their SMILES.

The nature of data set [1]: Metabolic stability assay in liver microsomes. Type of data set: in vitro ADME, mouse.
Data set [2] is described as follows: Metabolic stability assay in liver microsomes. Type of data set: in vitro ADME, human. On the technique in general: Liver microsomes are vesicles of endoplasmic reticulum, rich in cytochrome P450 enzymes.

As to `Cc1nnc2n1-c1ccc(Cl)cc1C(c1ccccc1)=NC2` [Alprazolam], the “MLM t1/2” value in data set [1] (mouse liver microsomes 0.5 mg protein/mL, 2.0 μM compound, 37°C) worked out at 4.93 h. The microsomal CLint (as a rule, the capacity of the preparation to metabolise the compound, expressed as a volume cleared per time) at 2 μM in data set [1] (mouse, liver microsomes) is 5 µL/min/mg; in data set [2] (human, liver microsomes), 2 µL/min/mg. The “HLM t1/2” value in data set [2] (human liver microsomes 0.5 mg protein/mL, 2.0 μM compound, 37°C) is 13.9 h.
